Series [1] addresses wild-type RT of HIV-1 (Human immunodeficiency virus type 1 group M subtype B, UniProt P04585). The series can be described thus: biochemical. The series is classed as biochemical. To be noted: for Selectivity = (kpol/Kd) natural nucleotide/(kpol/Kd) nucleotide analogue (discrimination): versus dATP.
Series [2] deals with K65R mutant RT of HIV-1 (Human immunodeficiency virus type 1 group M subtype B, UniProt P04585, K652R). Briefly: biochemical. The note with it: for Selectivity = (kpol/Kd) natural nucleotide/(kpol/Kd) nucleotide analogue: versus dATP. The class given is biochemical.
The test system of series [3] is K65R mutant RT of HIV-1. Briefly: biochemical. The series is classed as biochemical.
Series [4] deals with HBV. Briefly: Anti-HBV test in infected HepAD38 cells (intracellular viral DNA by Q-PCR). The note with it: for SI selectivity index (TC50/EC50): HBV, HepAD38 cells; for EC50: Hepatitis B virus, 144 h, infected HepAD38 cells, 50% reduction of viral DNA, day 6 post-induction. The class given is cell-based. The protocol:
These are hepatoma cells that have been stably transfected with a cDNA copy of the pregenomic RNA of wild-type virus. Withdrawal of tetracycline from the culture medium results in the initiation of viral replication. This offers the advantage, in contrast to the Hep G2.2.15 cell lines commonly used, that there is no, or very limited background viral DNA synthesis. Cells were cultured at 37° C. in a humidified 5% CO2/air atmosphere in seeding medium, DMEM/Ham's F12 (50/50) supplemented with 10% (v/v) heat-inactivated fetal calf serum, 100 IU/ml penicillin, 50 μg/ml streptomycin, 100 Ξg/ml kanamycin, 400 μg/ml G418, and 0.3 μg/ml tetracycline. […] After 2-3 days the cultures were induced for viral production by washing with prewarmed PBS and were fed with […] assay medium (seeding medium without tetracycline and G418) with or without the antiviral compounds. Medium was changed after 3 days. The antiviral effect was quantified by measuring levels of intracellular viral DNA at day 6 post-induction, by a real time quantitative PCR (Q-PCR) method. Total cellular DNA was extracted from the cells by means of a commercial kit. […] The reaction was analyzed using a SDS 7000. A plasmid containing the full length insert of the HBV genome was used to prepare the standard curve. The amount of viral DNA produced in treated cultures was expressed as a percentage of the mock treated samples. […] The cytostatic effect of the various compounds was assessed employing the parent hepatoma cell line HepG2. The effect of the compounds on exponentially growing HepG2 cells was evaluated by means of the MTS method. Briefly, cells were seeded at a density of 3000/well (96 well plate) and were allowed to proliferate for 3 days in the absence or presence of compounds after which the optical density was measured with a 96-well plate reader and cell density was determined.

Series [5] relates to HBV. Briefly: Anti-HBV test in infected Huh7 cells. The series is classed as cell-based. The note with it: Hepatitis B virus.
Series [6] concerns HIV-1-LAI. The series can be described thus: Anti-HIV test in CMSP cultures infected by HIV-1-LAI (RT activity in supernatants). The class given is cell-based. The note with it: for IT (selectivity index, TC50/EC50): HIV-1 (LAI), CMSP; for EC50: Human immunodeficiency virus 1, 168 h, read-out: EC50 (μM) HIV-1 (LAI).
Series [7] can be described thus: Cytotoxicity by MTT test in cultures of uninfected CMSP. To be noted: human. Background: Tetrazolium dyes change colour on reduction, which living cells bring about.
Series [8] can be described thus: Cytostatic effect on parent hepatoma cell line HepG2 (MTS method). The note with it: human.
[9] abbreviates: affinities of the RT for the analogues (Kd), wild-type RT, unit inferred.

Where two headings read alike, the source gives them in different places.

The values that follow come from patent publication US8884011B2, “Nucleotide analogues as precursor molecules for antivirals” (Centre National de la Recherche Scientifique-CNRS, priority 2006, dated 2014).

As a reminder, the Kd is a measure of binding affinity in units of concentration. For orientation: EC50 means the concentration giving half of the maximal effect. The term CC50 denotes the concentration that lowers cell viability or growth by half.

Turning to `Nc1ncnc2c1ncn2CCOCP(O)(=S)OP(=O)(O)OP(=O)(O)O` (stereo not shown) [Compound 12, 9-[2-(diphosphorylthiophosphonomethoxy)ethyl]adenine], the Kd in series [1] (setting [9]) was 1.2 µM. Further, in series [1] (wild-type RT), the “incorporation velocity, times lower than that of natural nucleotide dATP” value worked out at 90 times; the “kpol” value turned out to be 0.55 s⁻¹; the kpol/Kd stood at 0.5; the “Selectivity = (kpol/Kd) natural nucleotide/(kpol/Kd) nucleotide analogue (discrimination)” value is recorded as 14.5. The same compound came in with a Kd in series [2] of 0.7 µM. Also, in series [2] (K65R mutant RT), the “kpol” value was determined as 0.03 s⁻¹ and the kpol/Kd came to 0.04. The “reduction in the incorporation velocity of the nucleotide (factor)” value (“reduction in the incorporation velocity” below) in series [3] is on record as 18.
Take `C[C@H](Cn1cnc2c(N)ncnc21)OCP(O)(=S)OP(=O)(O)OP(=O)(O)O` (stereo partly drawn) [Compound 13, (R)-9-[2-(pyrophosphoroxythiophosphonomethoxy)propyl]adenine]: in series [1], the “incorporation velocity, times lower than that of natural nucleotide dATP” value was found to be 90 times. Besides, the entries for the “kpol” value in series [1] and in series [2] (K65R mutant RT) were 0.58 s⁻¹ and 0.077 s⁻¹, respectively. Also, the kpol/Kd in series [1] came to 0.11; in series [2] (K65R mutant RT), 0.03. Further, the Kd stood at 5.2 µM in series [1] (Kd (μM), wild-type RT); 5.5 µM in series [1] (setting [9]); 2.7 µM in series [2]. The “Selectivity = (kpol/Kd) natural nucleotide/(kpol/Kd) nucleotide analogue (discrimination)” value in series [1] (wild-type RT) is listed as 59.8.
For `Nc1ncnc2c1ncn2CCOCP(=O)(O)O` [PMEA, 9-(2-(phosphonomethoxy)ethyl)adenine], in series [4], the “SI selectivity index (TC50/EC50)” value was >23. Besides, the EC50 in series [4] was 8.8 µM; in series [5] (Huh-7, infected Huh7 cells, 50% reduction of viral DNA, read-out: EC50 (μM) HBV), 6 µM; in series [6] (CMSP cultures, 7 days, RT activity in supernatants), 1.9 µM. In addition, the “IT (selectivity index, TC50/EC50)” value in series [6] was >5. Further, in series [7], the CC50 at 7 days was > 19 µM. Also, the CC50 at 3 days in series [8] was > 200 µM.
In the case of `Nc1ncnc2c1ncn2CCOCP(=O)(O)OP(=O)(O)OP(=O)(O)O` [PMEApp, PMEA diphosphate], in series [1] (wild-type RT), the “kpol” value came to 6.8 s⁻¹, the kpol/Kd came to 0.86 and the “Selectivity = (kpol/Kd) natural nucleotide/(kpol/Kd) nucleotide analogue (discrimination)” value was found to be 7.8. Further, the Kd in series [1] (wild-type RT, read-out: Kd) worked out at 7.9 µM. Moreover, in series [2] (K65R mutant RT), the Kd turned out to be 7.7 µM, the “kpol” value worked out at 0.75 s⁻¹, the kpol/Kd came out at 0.1 and the “Selectivity = (kpol/Kd) natural nucleotide/(kpol/Kd) nucleotide analogue” value is recorded as 16.9. Further, the “reduction in the incorporation velocity” value in series [3] turned out to be 9.
With `CC(Cn1cnc2c(N)ncnc21)OCP(=O)(O)O` (stereo not shown) [PMPA, 9-(2-(phosphonomethoxy)propyl)adenine], in series [4], the “SI selectivity index (TC50/EC50)” value is recorded as >12 and it took 2.88 µM to reach a half-maximal effect (EC50). In addition, the half-maximal effective concentration (EC50) in series [5] (Huh-7, read-out: EC50 (μM) HBV) was 4 µM. For the same compound, in series [6], the “IT (selectivity index, TC50/EC50)” value is given as >77 and the EC50 was determined as 1.3 µM. Besides, in series [7], the CC50 at 7 days was > 100 µM. Moreover, the CC50 at 3 days in series [8] (exponentially growing HepG2 cells) was > 35 µM.
On to `C[C@@H](Cn1cnc2c(N)ncnc21)OCP(=O)(O)OP(=O)(O)OP(=O)(O)O` [PMPApp, PMPA diphosphate], for which, in series [1] (wild-type RT), the “kpol” value was 7 s⁻¹, the kpol/Kd came to 0.3 and the “Selectivity = (kpol/Kd) natural nucleotide/(kpol/Kd) nucleotide analogue (discrimination)” value is 22.3. Further, in series [1] (wild-type RT, listed as PMPADP), the “Selectivity = (kpol/Kd) natural nucleotide/(kpol/Kd) nucleotide analogue (discrimination)” value was 22. For the same compound, in series [1] (wild-type RT, read-out: Kd), the Kd is 23 µM. Moreover, in series [2] (K65R mutant RT), the Kd was 18 µM, the “kpol” value turned out to be 0.32 s⁻¹, the kpol/Kd came out at 0.017 and the “Selectivity = (kpol/Kd) natural nucleotide/(kpol/Kd) nucleotide analogue” value stood at 99.4. In addition, the “reduction in the incorporation velocity” value in series [3] came out at 22.
`Nc1ncnc2c1ncn2[C@H]1C[C@H](O)[C@@H](COP(=O)(O)OP(=O)(O)OP(=O)(O)O)O1` [dATP]: the “kpol” value in series [1] (wild-type RT) was determined as 50.16 s⁻¹; in series [2] (K65R mutant RT), 11.63 s⁻¹. For the same compound, the kpol/Kd in series [1] (wild-type RT) came out at 6.71; in series [2] (K65R mutant RT), 1.69. The Kd in series [1] (wild-type RT, read-out: Kd) was found to be 7.47 µM; in series [1] (wild-type RT, unit inferred, read-out: affinities of the RT for the analogues (Kd)), 7.5 µM; in series [2] (K65R mutant RT), 6.89 µM.
